Literature values as cited in US20050070512A1, “Pharmaceutical composition and methods comprising combinations of 2-alkylidene-19-nor-vitamin D derivatives and an estrogen agonist/antagonist” (Pfizer Inc, priority 2003, published 2005).

Test system: HL-60 cells

## C=C1[C@H](O)CC(=C/C=C2\CCC[C@]3(C)[C@@H]([C@H](C)CCCC(C)(C)O)CC[C@@H]23)C[C@H]1O [2-Methylene-19-Nor-1,25-(OH)2D3, 1α,25-dihydroxy-2-methylene-19-nor-vitamin D3]
  Induction of differentiation of HL-60 cells to the monocyte (in words): activity similar to 1,25-(OH)2D3

## C=C1[C@H](O)CC(=C/C=C2\CCC[C@]3(C)[C@@H]([C@@H](C)CCCC(C)(C)O)CC[C@@H]23)C[C@H]1O [2-Methylene-19-Nor-20S-1,25-(OH)2D3, (20S)-1α,25-dihydroxy-2-methylene-19-nor-vitamin D3]
  Induction of differentiation of HL-60 cells to the monocyte (in words): extremely potent
